According to patent US7576094B2, “Spiro derivatives as lipoxygenase inhibitors” (Eli Lilly and Company, priority 2004, dated 2009):

How the values were obtained:
[1] = molecular target: T1, human recombinant 5-Lipoxygenase (Homo sapiens, UniProt P09917); assay: 5-Lipoxygenase Enzyme Assay; format: biochemical; conditions: 70 μM arachidonic acid, 10 minute incubation at room temperature, FOX reagent, absorbance at 620 nm; read-out: inhibition of 5-Lipoxygenase with an IC50
T1 sequence (P09917 1-674): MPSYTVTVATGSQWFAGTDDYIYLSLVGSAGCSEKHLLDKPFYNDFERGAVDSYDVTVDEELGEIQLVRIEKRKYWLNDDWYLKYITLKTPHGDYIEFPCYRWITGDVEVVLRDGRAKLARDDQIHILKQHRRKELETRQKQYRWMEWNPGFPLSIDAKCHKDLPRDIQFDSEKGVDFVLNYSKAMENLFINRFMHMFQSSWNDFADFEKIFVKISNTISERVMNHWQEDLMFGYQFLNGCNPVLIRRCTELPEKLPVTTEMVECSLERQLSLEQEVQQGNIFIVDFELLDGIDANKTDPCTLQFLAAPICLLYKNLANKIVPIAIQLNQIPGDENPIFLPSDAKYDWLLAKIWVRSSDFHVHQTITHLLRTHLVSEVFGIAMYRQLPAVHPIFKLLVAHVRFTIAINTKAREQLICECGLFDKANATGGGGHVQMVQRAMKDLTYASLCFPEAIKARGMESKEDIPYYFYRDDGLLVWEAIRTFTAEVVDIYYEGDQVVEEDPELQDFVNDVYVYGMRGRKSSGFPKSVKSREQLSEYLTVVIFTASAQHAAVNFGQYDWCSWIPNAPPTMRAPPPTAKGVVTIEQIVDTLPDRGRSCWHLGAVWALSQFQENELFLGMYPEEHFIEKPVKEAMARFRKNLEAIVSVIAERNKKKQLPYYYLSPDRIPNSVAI
Summary of the method: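 Recombinant human 5-LOX in 50 mM Tris-HCl pH 7.4 was preincubated with compound, then 70 μM arachidonic acid was added for 10 min at room temperature. Hydroperoxide was read by FOX reagent (ferric xylenol orange, 1 h complex formation) as absorbance at 620 nm. Five concentrations in triplicate were tested, starting at 10 μM.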

[2] = molecular target: T2, porcine leukocyte 12/15-Lipoxygenase (Sus scrofa, UniProt P16469); assay: 12/15-Lipoxygenase Enzyme Assay; format: biochemical; conditions: 70 μM arachidonic acid, 10 minute incubation at room temperature, FOX reagent, absorbance at 620 nm; read-out: inhibition of 12/15-Lipoxygenase with an IC50
T2 sequence (P16469 1-663): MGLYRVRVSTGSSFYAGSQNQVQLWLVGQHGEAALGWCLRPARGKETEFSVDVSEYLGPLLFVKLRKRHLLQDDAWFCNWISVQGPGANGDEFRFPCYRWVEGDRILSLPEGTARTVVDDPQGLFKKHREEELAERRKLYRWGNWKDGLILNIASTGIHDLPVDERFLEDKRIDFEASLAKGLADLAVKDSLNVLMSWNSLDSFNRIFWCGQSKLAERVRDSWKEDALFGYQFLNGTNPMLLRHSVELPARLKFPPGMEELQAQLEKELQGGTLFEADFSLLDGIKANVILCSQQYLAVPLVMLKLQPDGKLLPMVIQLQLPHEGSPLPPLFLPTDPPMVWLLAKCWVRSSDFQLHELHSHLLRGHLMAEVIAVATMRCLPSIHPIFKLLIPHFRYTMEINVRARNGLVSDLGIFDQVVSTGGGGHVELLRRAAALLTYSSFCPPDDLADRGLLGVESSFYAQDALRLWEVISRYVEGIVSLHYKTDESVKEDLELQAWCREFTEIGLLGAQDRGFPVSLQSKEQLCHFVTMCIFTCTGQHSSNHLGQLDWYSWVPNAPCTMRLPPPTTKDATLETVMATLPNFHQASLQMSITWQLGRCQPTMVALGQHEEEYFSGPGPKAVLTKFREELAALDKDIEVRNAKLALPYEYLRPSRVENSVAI
Text: This procedure was used for measuring the enzymatic activity of porcine leukocyte 12/15-Lipoxygenase using a […] method based on the ferric oxidation of xylenol orange.
• 96 well flat bottom microfilter plates (VWR, Catalog # 62402-933 9295) • Lipoxygenase screening assay buffer (Cayman, Catalog # 760710) • Porcine leukocyte 12/15-Lipoxygenase (Cayman, Catalog # 60300) • Arachidonic Acid (Sigma, Catalog # A3555) • Xylenol orange tetrasodium salt (Aldrich, Catalog # 227854) • Iron (II) sulfate heptahydrate (Sigma, Catalog # F7002) • Sulfuric acid (95-98%) [18M] • Methanol Procedure
Porcine Leukocyte 12/15-Lipoxygenase (Cayman Cat # 60300) was used in this assay. Test compound and/or vehicle was added to 1.3 μL 12/15-Lipoxygenase in 50 mM Tris-HCl buffer, pH 7.4. The reaction was initiated by addition of 70 μM arachidonic acid in Tris-HCl buffer, pH 7.4, and terminated after a 10 minute incubation at room temperature by addition of FOX reagent (25 mM sulfuric acid, 100 μM xylenol orange, 100 μM iron (II) sulfate, methanol:water 9:1). The yellow color of acidified xylenol orange was converted to a blue color by the lipid hydroperoxide-mediated oxidation of Fe^2+ ions and the interaction of the resulting Fe^3+ ions with the dye. The complex was allowed to form during a 1 hour incubation at room temperature with shaking. Absorbance of the Fe^3+ complex was then measured at […] using a spectrophotometer.
Negative controls contained enzyme during the incubation step but substrate was not added until after the FOX reagent. Compounds are screened at 5 concentrations in triplicate starting at 10 μM

[3] = system: LTB4 production in human whole blood; assay: Inhibition of LTB4 Production in Blood; format: cell-based; conditions: 1 h, 20 μM A23187, 60 minutes at 37° C., LTB4 in plasma by ELISA, read-out: protection against LTB4 at an EC50
Summary of the method: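 Citrated human whole blood preincubated 15 min at 37 °C with compound (top final 30 μM, 1:3 dilutions, quadruplicate), then stimulated with 20 μM A23187 for 60 min at 37 °C. Plasma LTB4 quantified by ELISA; IC50 from percent inhibition versus vehicle.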

[4] = system: release of the leukotriene LTB4 from a neutrophil cell line (MPRO cell line); assay: LTB4-Cell Assay; format: cell-based; conditions: Mus musculus, 1 h, read-out: inhibition of LTB4 with an EC50
Summary of the method: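 Mouse promyelocytic cells differentiated to neutrophils with 10 μM all-trans retinoic acid for 72 h, then stimulated with 1 μM A23187 plus compound for 1 h at 37° C. Supernatant LTB4 quantified by competitive EIA; 5 concentrations in quadruplicate from 10 μM top.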

| SMILES | IC50 [1] | IC50 [2] | EC50 [3] | EC50 [4] |
| --- | --- | --- | --- | --- |
| Cc1c(O)cc2c(c1C)N(c1cccc(O)c1)CC1(CCC1)C2 [1′-(3-hydroxyphenyl)-7′,8′-dimethyl-2′,4′-dihydro-1′H-spiro[cyclobutane-1,3′-quinolin]-6′-ol] | < 0.3 µM | < 5 µM | – | – |
| Cc1c(O)cc2c(c1C)N(c1ccc(F)cc1)CC1(CCC1)C2 [1′-(4-fluorophenyl)-7′,8′-dimethyl-2′,4′-dihydro-1′H-spiro[cyclobutane-1,3′-quinolin]-6′-ol] | – | < 5 µM | – | – |
| COc1ccc(N2CC3(CCC3)Cc3cc(O)c(C)c(C)c32)cc1 [1′-(4-methoxyphenyl)-7′,8′-dimethyl-2′,4′-dihydro-1′H-spiro[cyclobutane-1,3′-quinolin]-6′-ol] | – | < 5 µM | – | – |
| Cc1c(O)cc2c(c1C)N(c1ccc(O)cn1)CC1(CCC1)C2 [1′-(5-hydroxypyridin-2-yl)-7′,8′-dimethyl-2′,4′-dihydro-1′H-spiro[cyclobutane-1,3′-quinolin]-6′-ol] | < 0.3 µM | < 5 µM | < 10 µM | – |
| CCN1CC2(CCC2)Cc2cc(O)c(C)c(C)c21 [1′-ethyl-7′,8′-dimethyl-2′,4′-dihydro-1′H-spiro[cyclobutane-1,3′-quinolin]-6′-ol] | – | < 5 µM | – | – |
| COc1cc2c(c(C)c1C)N(c1ccc(O)cc1)CC1(CCC1)C2 [4-(6′-methoxy-7′,8′-dimethyl-2′,4′-dihydro-1′H-spiro[cyclobutane-1,3′-quinoline]-1′-yl)phenol] | < 0.3 µM | < 5 µM | – | – |
| Cc1c(C)c2c(c(C)c1O)C(OC1CCCC1)CC1(CCC1)O2 (centres unmarked) [4-(cyclopentyloxy)-5,7,8-trimethyl-3,4-dihydrospiro[chromene-2,1′-cyclobutane]-6-diol] | < 0.3 µM | < 5 µM | – | < 5 µM |
| Cc1c(C)c2c(c(C)c1O)C(SC(C)C)CC1(CCC1)O2 (centres unmarked) [4-(isopropylthio)-5,7,8-trimethyl-3,4-dihydrospiro[chromene-2,1′-cyclobutan]-6-ol] | < 0.3 µM | < 5 µM | – | < 5 µM |
| CCOC1CC2(CCC2)Oc2c(C)c(C)c(O)c(C)c21 (centres unmarked) [4-ethoxy-5,7,8-trimethyl-3,4-dihydrospiro[chromene-2,1′-cyclobutan]-6-ol] | < 0.3 µM | < 5 µM | – | < 5 µM |
| Cc1c(C)c2c(c(C)c1O)CCC1(CCC1)O2 [5,7,8-trimethyl-3,4-dihydrospiro[chromene-2,1′-cyclobutan]-6-ol] | < 0.3 µM | < 5 µM | – | < 5 µM |
| Cc1c(C)c2c(c(C)c1OC(=O)CN1CCN(C)CC1)CCC1(CCC1)O2 [5,7,8-trimethyl-3,4-dihydrospiro[chromene-2,1′-cyclobutan]-6-yl-2-(4-methylpiperazin-1-yl)acetate] | – | < 5 µM | – | – |
| Cc1c(C)c2c(c(C)c1O)CC1(CCC1)CO2 [5,7,8-trimethylspiro[chroman-3,1′-cyclobutan]-6-ol] | < 0.3 µM | < 5 µM | < 10 µM | – |
| CCc1cc2c(c(CC)c1O)C=CC1(CCC1)O2 [5,7-diethylspiro[chromene-2,1′-cyclobutan]-6-ol] | < 0.3 µM | < 5 µM | < 10 µM | – |
| CC(C)c1cc2c(c(C(C)C)c1O)C=CC1(CCC1)O2 [5,7-diisopropylspiro[chromene-2,1′-cyclobutan]-6-ol] | < 0.3 µM | < 5 µM | < 10 µM | – |
| Cc1cc2c(c(C)c1O)C=C(c1cnco1)C1(CCC1)O2 [5,7-dimethyl-3-(1,3-oxazol-5-yl)spiro[chromene-2,1′-cyclobutan]-6-ol] | < 0.3 µM | < 5 µM | < 10 µM | – |
| Cc1cc2c(c(C)c1O)CC(c1cnco1)C1(CCC1)O2 (centres unmarked) [5,7-dimethyl-3-(oxazol-5-yl)spiro[chroman-2,1′-cyclobutan]-6-ol] | < 0.3 µM | < 5 µM | < 10 µM | – |
| Cc1c(O)c(CCc2ccc3ccccc3n2)c(C)c2c1CCC1(CCC1)O2 [5,8-dimethyl-7-(2-(quinolin-2-yl)ethyl)spiro[chroman-2,1′-cyclobutan]-6-ol] | – | < 5 µM | – | – |
| Cc1c(O)c(CCC(C)C)c(C)c2c1CCC1(CCC1)O2 [5,8-dimethyl-7-(3-methylbutyl)-3,4-dihydrospiro[chromene-2,1′-cyclobutan]-6-ol] | < 0.3 µM | < 5 µM | – | < 5 µM |
| COc1c(C(C)(C)C)cc2c(c1C)CC1(CCC1)CN2c1ccc(O)cn1 [6-(7′-tert-butyl-6′-methoxy-5′-methyl-2′,4′-dihydro-1′H-spiro[cyclobutane-1,3′-quinoline]-1′-yl)pyridin-3-ol] | – | < 5 µM | – | – |
| Cc1c(O)c(-c2cc3ccccc3o2)c(C)c2c1CCC(C)(C)O2 [7-(1-benzofuran-2-yl)-2,2,5,8-tetramethylchroman-6-ol] | – | < 5 µM | – | – |
| Cc1c(O)c(C(C)C)cc2c1CCC1(CCC1)O2 [7-isopropyl-5-methyl-3,4-dihydrospiro[chromene-2,1′-cyclobutan]-6-ol] | < 0.3 µM | < 5 µM | < 10 µM | – |
| Cc1c(O)c(C(C)C)cc2c1C=CC1(CCC1)O2 [7-isopropyl-5-methylspiro[chromene-2,1′-cyclobutan]-6-ol] | < 0.3 µM | < 5 µM | < 10 µM | – |
| Cc1ccc(N2CC3(CCC3)Cc3cc(O)c(C)c(C)c32)cc1 [7′,8′-dimethyl-1′-p-tolyl-2′,4′-dihydro-1′H-spiro[cyclobutane-1,3′-quinolin]-6′-ol] | < 0.3 µM | < 5 µM | – | – |
| Cc1c(O)c(C(C)(C)C)cc2c1CC1(CCC1)CN2c1ccc(O)cn1 [7′-tert-butyl-1′-(5-hydroxypyridin-2-yl)-5′-methyl-2′,4′-dihydro-1′H-spiro[cyclobutane-1,3′-quinolin]-6′-ol] | – | < 5 µM | – | – |
| CCCc1ccc(S(=O)(=O)NCCCN2CC3(CCC3)Cc3cc(O)c(C)c(C)c32)cc1 [N-(3-(6′-hydroxy-7′,8′-dimethyl-2′,4′-dihydro-1′H-spiro[cyclobutane-1,3′-quinoline]-1′-yl)propyl)-4-propylbenzenesulfonamide] | < 0.3 µM | < 5 µM | < 10 µM | – |
